Measurements published in publication PMC9138505, “Small Molecule 20S Proteasome Enhancer Regulates MYC Protein Stability and Exhibits Antitumor Activity in Multiple Myeloma” (Biomedicines, 2022).
Values joined by “and” are separate entries in the source; they are usually repeats but may differ in a detail not shown here. Equal values may be shown once.

System: RPMI-8226 cells
Assay: Gene expression profiling, NanoString nCounter PanCancer Pathways Panel, ROSALIND analysis
Format: cell-based, human
Details: RPMI-8226, TCH-165 samples 1-3
Procedure: RPMI-8226 cells were treated with vehicle or TCH-165 (10 μM) for 4 h. Total RNA was obtained using the mirVana miRNA Isolation Kit, with phenol (Thermofisher Scientific; AM1560; Waltham, MA, USA). Total RNA was quantified by Qubit (Thermofisher Scientific; Q32855; Waltham, MA, USA). and gene expression was evaluated against the nCounter® PanCancer Pathways Panel^TM according to the standard NanoString protocol.
Data were analyzed by ROSALIND® [36] with a hyperscale architecture developed by ROSALIND, Inc. (San Diego, CA, USA). Normalization, fold changes and p-values were calculated using criteria provided by NanoString. ROSALIND follows the nCounter® Advanced Analysis protocol of dividing counts within a lane by the geometric mean of the normalizer probes from the same lane. Housekeeping probes to be used for normalization are selected based on the geNorm algorithm, as implemented in the NormqPCR R library. Fold changes and p-values are calculated using the fast method as described in the nCounter Advanced Analysis 2.0 User Manual. The p-value adjustment is performed using the Benjamini–Hochberg method of estimating false discovery rates (FDR). Clustering of genes for the final heatmap of differentially expressed genes was done using the PAM (Partitioning Around Medoids) method using the fpc R library. Hypergeometric distribution was used to analyze the enrichment of pathways, gene ontology, domain structure and other ontologies. The topGO R library was used to determine local similarities and dependencies between GO terms in order to perform Elim pruning correction. Several database sources were referenced for enrichment analysis, including Interpro [40], NCBI [41], MSigDB [42, 43], REACTOME [44], WikiPathways. Enrichment was calculated relative to a set of background genes relevant to the experiment.

Structure (SMILES): CCOC(=O)[C@]1(c2ccccc2)N=C(c2ccc(OC)cc2)N(Cc2ccccc2)[C@@H]1c1ccc(NCc2ccccc2)cc1 [TCH-165]
- HRAS normalized gene expression: 7.087 and 7.184 and 7.0682
- HSP90B1 normalized gene expression: 11.9809 and 12.0196 and 12.0083
- HSPA1A normalized gene expression: 6.793 and 6.667 and 6.528
- HSPA2 normalized gene expression: 5.259 and 4.962 and 5.39
- HSPA6 normalized gene expression: 8.169 and 8.132 and 8.184
- HSPB1 normalized gene expression: 10.6744 and 10.4282 and 10.4272
- IBSP normalized gene expression: 4.101 and 4.427 and 3.5707
- ID1 normalized gene expression: 7.234 and 7.077 and 7.39
- ID2 normalized gene expression: 8.252 and 8.085 and 8.156
- ID4 normalized gene expression: 5.308 and 4.962 and 4.5707
- IDH1 normalized gene expression: 8.037 and 7.944 and 8.087
- IDH2 normalized gene expression: 10.7214 and 10.6097 and 10.5399
- IFNA2 normalized gene expression: 4.793 and 5.029 and 4.876
- IFNA7 normalized gene expression: 4.208 and 3.891 and 3.653
- IFNA17 normalized gene expression: 5.445 and 5.817 and 5.712
- IFNG normalized gene expression: 4.723 and 3.739 and 3.731
- IGF1R normalized gene expression: 9.24 and 9.089 and 9.141
- IGF1 normalized gene expression: 5.686 and 5.427 and 5.0682
- IGFBP3 normalized gene expression: 11.5972 and 11.5942 and 11.578
- IKBKB normalized gene expression: 7.271 and 7.249 and 6.85
- IKBKG normalized gene expression: 8.189 and 8.037 and 8.156
- IL1A normalized gene expression: 4.208 and 4.154 and 4.0682
- IL1B normalized gene expression: 5.044 and 4.427 and 4.805
- IL1R1 normalized gene expression: 4.723 and 4.27 and 4.1271
- IL1RAP normalized gene expression: 6.044 and 5.927 and 6.0682
- IL2RA normalized gene expression: 4.571 and 4.27 and 4.291
- IL2RB normalized gene expression: 4.101 and 3.891 and 4.437
- IL3RA normalized gene expression: 6.378 and 6.614 and 6.197
- IL3 normalized gene expression: 5.61 and 4.996 and 5.211
- IL5RA normalized gene expression: 6.182 and 6.2133 and 6.211
- IL6R normalized gene expression: 6.156 and 6.045 and 5.926
- IL6 normalized gene expression: 4.308 and 3.476 and 3.0682
- IL7R normalized gene expression: 4.571 and 4.569 and 4.528
- IL7 normalized gene expression: 4.101 and 4.739 and 4.805
- IL10 normalized gene expression: 5.892 and 6.27 and 6.238
- IL11RA normalized gene expression: 4.649 and 4.476 and 3.291
- IL11 normalized gene expression: 4.208 and 4.324 and 4.341
- IL12A normalized gene expression: 2.986 and 2.739 and 2.943
- IL12B normalized gene expression: 4.86 and 4.657 and 4.613
- IL12RB2 normalized gene expression: 4.401 and 3.476 and 3.39
- IL13RA2 normalized gene expression: 3.86 and 3.962 and 3.39
- IL13 normalized gene expression: 3.986 and 4.699 and 4.653
- IL15 normalized gene expression: 3.986 and 3.962 and 4.0682
- IL19 normalized gene expression: 5.044 and 4.855 and 5.0068
- IL20RA normalized gene expression: 4.101 and 3.739 and 4.0682
- IL20RB normalized gene expression: 5.892 and 5.836 and 5.613
- IL23A normalized gene expression: 6.355 and 5.979 and 6.038
- IL24 normalized gene expression: 4.208 and 5.427 and 4.876
- INHBA normalized gene expression: 4.793 and 4.569 and 4.0682
- INHBB normalized gene expression: 5.53 and 5.927 and 5.75
- IRAK2 normalized gene expression: 5.892 and 5.524 and 5.893
- IRAK3 normalized gene expression: 5.156 and 5.029 and 4.805
- IRS1 normalized gene expression: 5.308 and 4.996 and 4.805
- ITGA2 normalized gene expression: 3.723 and 3.657 and 3.731
- ITGA3 normalized gene expression: 7.115 and 6.979 and 6.693
- ITGA6 normalized gene expression: 5.259 and 5.242 and 4.653
- ITGA7 normalized gene expression: 4.208 and 4.154 and 4.943
- ITGA8 normalized gene expression: 5.488 and 4.891 and 5.098
- ITGA9 normalized gene expression: 4.86 and 4.996 and 4.437
- ITGB3 normalized gene expression: 3.401 and 2.739 and 3.731
- ITGB4 normalized gene expression: 5.308 and 5.184 and 5.0682
- ITGB6 normalized gene expression: 5.571 and 5.2133 and 5.291
- ITGB7 normalized gene expression: 14.1153 and 14.105 and 14.0545
- ITGB8 normalized gene expression: 6.445 and 6.452 and 6.602
- JAG1 normalized gene expression: 8.08 and 7.864 and 7.85
- JAG2 normalized gene expression: 7.169 and 7.476 and 7.455
- JAK1 normalized gene expression: 9.467 and 9.41 and 9.414
- JAK2 normalized gene expression: 6.331 and 6.311 and 6.4021
- JUN normalized gene expression: 8.667 and 8.646 and 8.78
- KAT2B normalized gene expression: 7.955 and 8.18 and 8.102
- KDM5C normalized gene expression: 9.094 and 8.985 and 8.924
- KDM6A normalized gene expression: 4.401 and 4.029 and 3.943
- KIT normalized gene expression: 5.101 and 4.739 and 4.528
- KITLG normalized gene expression: 4.649 and 4.739 and 4.5707
- KLF4 normalized gene expression: 4.308 and 4.996 and 4.769
- KMT2D normalized gene expression: 8.115 and 8.314 and 8.228
- KRAS normalized gene expression: 11.0766 and 10.9767 and 10.9365
- LAMA3 normalized gene expression: 5.308 and 5.324 and 5.1271
- LAMA5 normalized gene expression: 5.986 and 5.739 and 5.693
- LAMB3 normalized gene expression: 6.234 and 6.169 and 6.1271
- LAMB4 normalized gene expression: 4.401 and 4.029 and 3.731
- LAMC2 normalized gene expression: 3.723 and 3.27 and 3.731
- LAMC3 normalized gene expression: 5.649 and 4.996 and 4.693
- LAT normalized gene expression: 5.723 and 5.927 and 5.366
- LEF1 normalized gene expression: 3.86 and 2.891 and 2.291
- LEFTY1 normalized gene expression: 5.723 and 4.855 and 5.0068
- LEFTY2 normalized gene expression: 6.571 and 6.657 and 6.814
- LEP normalized gene expression: 5.259 and 4.855 and 4.291
- LEPR normalized gene expression: 6.401 and 5.817 and 6.378
- LFNG normalized gene expression: 5.758 and 5.2133 and 4.805
- LIF normalized gene expression: 5.259 and 5.029 and 5.156
